# Measurements reported in patent US10563263B2, “Genetic polymorphisms associated with statin response and cardiovascular diseases, methods of detection and uses thereof” (CELERA CORPORATION, priority 2010, dated 2020).
# Test system: CVD (CHD or stroke)
# Assay: Meta-analysis of CARE and WOSCOPS combined, synergy index, CVD endpoint
# Format: in vivo, human
# Excerpt: Tables 4-5 provide meta-analyses of CARE and WOSCOPS combined (2nd section of each table) for two endpoints (CHD and CVD) and three genetic models (dominant, recessive, and additive), as well as logistic regression analyses of CARE (3rd section of each table) and WOSCOPS (4th section of each table) individually.
# Tables 12 and 17 provide results of meta-analysis of the CARE and WOSCOPS sample sets combined by direct genotyping and by imputing genotypes.
# “P” indicates the p-value, and “P(R)” (or “P.R.”) indicates the p-value random effect. Both of these are p-values corresponding to a statistical test of whether the combined synergy index is equal to one but use different assumptions to derive the p-value. “P” is calculated using a fixed effects model, and “P(R)” is calculated using a random effects model.
# “OR” indicates the odds ratio (synergy index) calculated from a fixed effects model, and “OR(R)” (or “OR.R.”) indicates the odds ratio (synergy index) calculated from a random effects model.
smiles,measurement,setting,value
"CC[C@H](C)C(=O)O[C@H]1C[C@H](O)C=C2C=C[C@H](C)[C@H](CC[C@@H](O)C[C@@H](O)CC(=O)O)[C@H]21 [Pravastatin, pravastatin]",OR(R),rs483159 allele T DOMINANT Imputed,1.4202
same,OR(R),rs489441 allele G ADDITIVE Imputed,1.4992
same,OR(R),rs489441 allele G DOMINANT Imputed,1.6072
same,OR(R),"rs937890 allele G (A1), DOMINANT, Imputed",0.6731
same,OR(R),"rs949016 allele C (A1), ADDITIVE, Imputed",1.5082
same,OR(R),"rs966583 allele A (A1), ADDITIVE, Imputed",0.7272
same,OR(R),"rs966583 allele A (A1), DOMINANT, Imputed",0.5916
same,OR(R),"rs974130 allele A (A1), RECESSIVE, Genotyped",2.0112
same,OR(R),"rs977160 allele T (A1), ADDITIVE, Imputed",1.5465
same,OR(R),"rs985375 allele A (A1), GENOTYPIC, Imputed",2.8891
same,OR(R),rs4760895 allele A ADDITIVE Imputed,0.7392
same,OR(R),rs4760895 allele A DOMINANT Imputed,0.6285
same,OR(R),rs4760895 allele A GENOTYPIC Imputed,0.574
same,OR(R),rs4764738 allele A ADDITIVE Imputed,1.4051
same,OR(R),rs4764738 allele A GENOTYPIC Imputed,1.9728
same,OR(R),rs4764974 allele T ADDITIVE Imputed,1.3855
same,OR(R),rs4764974 allele T GENOTYPIC Imputed,1.9196
same,OR(R),rs4798366 allele G RECESSIVE Imputed,1.8332
same,OR(R),rs4836502 allele T DOMINANT Imputed,0.6712
same,OR(R),rs4836507 allele C DOMINANT Imputed,0.6775
same,OR(R),rs4836744 allele A ADDITIVE Imputed,0.7345
same,OR(R),rs4836744 allele A DOMINANT Imputed,0.6854
same,OR(R),rs4848944 allele C RECESSIVE Genotyped,0.5819
same,OR(R),rs4851529 allele A DOMINANT Imputed,0.6476
same,OR(R),rs4851531 allele T DOMINANT Imputed,0.6602
same,OR(R),rs4858046 allele T GENOTYPIC Genotyped,2.0533
same,OR(R),rs4878214 allele A ADDITIVE Imputed,0.6477
same,OR(R),rs4880803 allele A ADDITIVE Imputed,0.7694
same,OR(R),rs4896568 allele T DOMINANT Imputed,0.6231
same,OR(R),rs4938851 allele T DOMINANT Imputed,1.4515
same,OR(R),rs4964416 allele C DOMINANT Imputed,0.6251
same,OR(R),rs5756669 allele C DOMINANT Imputed,1.6531
same,OR(R),rs6033138 allele C ADDITIVE Imputed,1.3837
same,OR(R),rs6033138 allele C GENOTYPIC Imputed,1.9484
same,OR(R),rs6033138 allele C RECESSIVE Imputed,1.6769
same,OR(R),rs6040619 allele C ADDITIVE Imputed,1.3881
same,OR(R),rs6040619 allele C GENOTYPIC Imputed,2.0334
same,OR(R),rs6040619 allele C RECESSIVE Imputed,1.7879
same,OR(R),rs6040625 allele T ADDITIVE Imputed,1.3888
same,OR(R),rs6040625 allele T GENOTYPIC Imputed,2.0214
same,OR(R),rs6040625 allele T RECESSIVE Imputed,1.7684
same,OR(R),rs6040630 allele A ADDITIVE Imputed,1.3767
same,OR(R),rs6040630 allele A GENOTYPIC Imputed,1.9741
same,OR(R),rs6040630 allele A RECESSIVE Imputed,1.7241
same,OR(R),rs6040633 allele A ADDITIVE Imputed,1.3703
same,OR(R),rs6040633 allele A GENOTYPIC Imputed,1.9475
same,OR(R),rs6040633 allele A RECESSIVE Imputed,1.6999
same,OR(R),rs6040634 allele T ADDITIVE Imputed,1.3722
same,OR(R),rs6040634 allele T GENOTYPIC Imputed,1.9531
same,OR(R),rs6040634 allele T RECESSIVE Imputed,1.7021
same,OR(R),rs6040636 allele T ADDITIVE Imputed,1.3761
same,OR(R),rs6040636 allele T GENOTYPIC Imputed,1.9585
same,OR(R),rs6040636 allele T RECESSIVE Imputed,1.7021
same,OR(R),rs6040638 allele C ADDITIVE Imputed,1.3722
same,OR(R),rs6040638 allele C GENOTYPIC Imputed,1.9531
same,OR(R),rs6040638 allele C RECESSIVE Imputed,1.7021
same,OR(R),rs6040644 allele A ADDITIVE Imputed,1.3722
same,OR(R),"rs9309988 allele G (A1), DOMINANT, Imputed",1.9381
same,OR(R),"rs9309989 allele C (A1), DOMINANT, Genotyped",1.9491
same,OR(R),"rs9310221 allele A (A1), DOMINANT, Imputed",1.8519
same,OR(R),"rs9327555 allele T (A1), DOMINANT, Imputed",0.5753
same,OR(R),"rs9454967 allele G (A1), ADDITIVE, Imputed",2.1926
same,OR(R),"rs9454967 allele G (A1), DOMINANT, Imputed",2.4795
same,OR(R),"rs9471295 allele T (A1), DOMINANT, Imputed",1.5391
same,OR(R),"rs9477007 allele A (A1), ADDITIVE, Imputed",1.429
same,OR(R),"rs9477007 allele A (A1), GENOTYPIC, Imputed",2.0759
same,OR(R),"rs9487279 allele T (A1), DOMINANT, Imputed",0.5948
same,OR(R),"rs9555973 allele G (A1), ADDITIVE, Imputed",0.5479
same,OR(R),"rs9555973 allele G (A1), DOMINANT, Imputed",0.5157
same,OR(R),"rs9557510 allele G (A1), ADDITIVE, Imputed",1.6102
same,OR(R),"rs9557510 allele G (A1), DOMINANT, Imputed",1.7706
same,OR(R),"rs9560584 allele T (A1), DOMINANT, Imputed",0.512
same,OR(R),"rs9588770 allele T (A1), DOMINANT, Imputed",0.5187
same,OR(R),"rs9588848 allele C (A1), ADDITIVE, Imputed",0.5369
same,OR(R),"rs9588848 allele C (A1), DOMINANT, Imputed",0.5009
same,OR(R),"rs9812206 allele G (A1), ADDITIVE, Imputed",0.4469
same,OR(R),"rs9812206 allele G (A1), DOMINANT, Imputed",0.4369
same,OR(R),"rs9813552 allele G (A1), ADDITIVE, Imputed",0.4493
same,OR(R),"rs9813552 allele G (A1), DOMINANT, Imputed",0.4387
same,OR(R),"rs9815037 allele T (A1), ADDITIVE, Imputed",0.4461
same,OR(R),"rs9815037 allele T (A1), DOMINANT, Imputed",0.4354
same,OR(R),"rs9825349 allele A (A1), ADDITIVE, Imputed",0.4461
same,OR(R),"rs9825349 allele A (A1), DOMINANT, Imputed",0.4354
same,OR(R),"rs9834217 allele T (A1), ADDITIVE, Imputed",0.4466
same,OR(R),"rs9834217 allele T (A1), DOMINANT, Imputed",0.4359
same,OR(R),"rs9840460 allele T (A1), ADDITIVE, Imputed",0.4461
same,OR(R),"rs9840460 allele T (A1), DOMINANT, Imputed",0.4354
same,OR(R),"rs9840756 allele A (A1), ADDITIVE, Imputed",0.4458
same,OR(R),"rs9840756 allele A (A1), DOMINANT, Imputed",0.435
same,OR(R),"rs9844801 allele C (A1), DOMINANT, Imputed",1.9381
same,OR(R),"rs9869187 allele C (A1), ADDITIVE, Imputed",0.4651
same,OR(R),"rs9869187 allele C (A1), DOMINANT, Imputed",0.4704
same,OR(R),"rs9872327 allele T (A1), DOMINANT, Imputed",1.9381
same,OR(R),"rs9881685 allele A (A1), ADDITIVE, Imputed",0.4438
same,OR(R),"rs9881685 allele A (A1), DOMINANT, Imputed",0.4332
same,OR(R),"rs9909499 allele C (A1), DOMINANT, Imputed",1.4669
same,OR(R),"rs9911847 allele G (A1), DOMINANT, Imputed",0.6755
same,OR(R),"rs9946886 allele G (A1), RECESSIVE, Imputed",0.3084
same,OR(R),"rs9958823 allele A (A1), ADDITIVE, Imputed",1.5292
same,OR(R),"rs9965248 allele T (A1), ADDITIVE, Imputed",1.4965
